Patent US10953099B2, “Compositions comprising a metal source, dithiocarbamate and cyclodextrin” (priority 2016, dated 2021)
pIC50: −log10 of the molar value.

How the values were obtained:
[1] = tested on: Raji human B-cell lymphoma cells; experiment: Cell-titer-blue viability, Raji; type: cell-based; conditions: in presence of sulfobutyl ether-β-cyclodextrin, 72 h
Protocol: (§1) The anti-tumoral efficacy of a panel of 7 different Au complexes, ATM/Disulfiram, the standard therapeutic Cisplatin and well known antitumoral CuDTC (see Table 2) was tested on Jurkat human T-cell leukemia and Raji human B-cell lymphoma cells. […] 24 h later, test compound were added in the presence of sulfobutyl ether-β-cyclodextrin (30 fold disulfiram concentration) in various dilutions (100-0.01 μM). All concentrations were applied in triplicate. […] The “Factor of Selectivity for T-cell Leukemia” was calculated by division of IC50 on Raji cells/IC50 on Jurkat cells.

[2] = tested on: Jurkat human T-cell leukemia cells; experiment: Cell-titer-blue viability, Jurkat; type: cell-based; conditions: for selectivity for Jurkat IC50 Raji/IC50 Jurkat (Factor of Selectivity for T-cell Leukemia): IC50 on Raji cells/IC50 on Jurkat cells; for pIC50: in presence of sulfobutyl ether-β-cyclodextrin, 72 h
Protocol: as §1

H209 SCLC cells = experiment: H209 SCLC tumor relapse model in mice; type: in vivo, nu/nu mice; conditions: after 6 weeks DKFZ-00608 15 mg/kg daily in 60 mM sulfobutyl ether beta-cyclodextrin
Protocol: The inventors wanted to compare the efficacy of DKFZ-00608 on human SCLC tumors with standard therapy in vivo. […] Followed by DKFZ-00608 in 60 mM sulfobutyl ether beta-cyclodextrin (15 mg/kg daily) for 6 weeks • DKFZ-00608 in 60 mM sulfobutyl ether beta-cyclodextrin (15 mg/kg daily) for 6 weeks. Tumor sizes were determined 2× per week for the first 9 weeks, thereafter, once per week.

With `N.N.[Cl][Pt][Cl]` [Cisplatin] the pIC50 [1] was 5.57, the “selectivity for Jurkat IC50 Raji/IC50 Jurkat (Factor of Selectivity for T-cell Leukemia)” value [2] was 4.45 and the pIC50 [2] was 6.21.

For `CCN(CC)C(=S)[S-].CCN(CC)C(=S)[S-].[Cu+2]` [CuDTC], the pIC50 [1] was 7.70, the “selectivity for Jurkat IC50 Raji/IC50 Jurkat (Factor of Selectivity for T-cell Leukemia)” value [2] was 2.62 and the pIC50 [2] was 8.00.

In the case of `CCN(CC)/C1=[SH]/[Au][S]/C(N(CC)CC)=[SH]\[Au][S]1` [DKFZ-00608], the “animals with no palpable tumors” value (H209 SCLC cells) was 6 out of 10.
